For one data set, the species on record is Rattus norvegicus. Kind of data set: Neuroprotective actvity against 6-OHDA-induced rat Parkinson's disease model assessed as improved locomotory actvity by open-field test. In kind it is functional, organism-based. The note with it: dose 5-10 mg/kg.
Data set [1] is described as follows: Cardiotoxicity in Beagle dog at 30 to 300 mg/kg, po by telemetry analysis. In kind it is toxicity, organism-based, Canis lupus familiaris. The settings on record: in vivo, dose 30-300 mg/kg.

Among the data in ChEMBL document CHEMBL4742392, “Tetrahydropyridopyrazine modulators of GPR6” (2019) are Activity values, retold here.

Turning to `CC(=O)N1CCc2nc(N3CCC(Oc4ccc(F)cc4F)CC3)c(N[C@@H]3CCOC3)nc2C1`, the Activity result in the data set filed under Rattus norvegicus is “Dose-dependent effect”; in data set [1], “Non-Toxic”.
